Legend:
Type in all cases: functional, cell-based
[1] = Cytotoxicity against human H522-T1 cells after 96 hrs by CellTire-Glo luminescent assay; settings: H522-T1, 96 h
A2780 = test: Cytotoxicity against human A2780 cells after 2 days by alamar Blue assay; settings: A2780, 48 h
A2058 = test: Cytotoxicity against human A2058 cells after 96 hrs by CellTire-Glo luminescent assay; settings: A2058, 96 h

SMILES	IC50 [1] [µM]	IC50 (A2780) [µM]	IC50 (A2058) [µM]
CC1(O)OC(=O)C2=C1CC[C@H]1[C@]3(C)CC[C@H]4C(C)(C)CCC[C@]4(CO)[C@H]3C[C@@H](O)[C@]21C (stereo partly specified)	> 10	8.7	> 10
CC(=O)O[C@H]1C[C@H]2[C@@](C)(CC[C@H]3C(C)(C)CCC[C@@]32CO)[C@@H]2CC=C(C(C)=O)[C@H](C=O)[C@@]12C		0.65	
CC(=O)C1=CC[C@H]2[C@]3(C)CC[C@H]4C(C)(C)CCC[C@]4(CO)[C@H]3C[C@@H](O)[C@]2(C)[C@H]1C=O (relative stereo)	0.61	0.28	> 0.37
CC1(C)CCC[C@@]2(CO)[C@H]1CC[C@]1(C)[C@@H]2C[C@@H](O)[C@]2(C)[C@H]3C=CC(=O)C3=CC[C@@H]12 (relative stereo)	5.28	4.5	4.17
CC(=O)C1=CC[C@H]2[C@]3(C)CC[C@H]4C(C)(C)CCC[C@]4(CO)[C@H]3C[C@H](O)[C@]2(C)[C@@H]1C=O (relative stereo)	1.7	0.26	1.83
CC(=O)O[C@H]1C(=O)[C@@]2(C)[C@H]([C@H](OC(=O)c3ccccc3)[C@]3(O)C[C@H](OC(=O)[C@H](O)[C@@H](NC(=O)c4ccccc4)c4ccccc4)C(C)=C1C3(C)C)[C@]1(OC(C)=O)CO[C@@H]1C[C@@H]2O [PACLITAXEL]	0.0081	0.012	0.0047

Source: ChEMBL document CHEMBL2385065, “Antiproliferative homoscalarane sesterterpenes from two Madagascan sponges” (Bioorg Med Chem, 2013)
